Reference: ChEMBL document CHEMBL1136180, “Isolation of bisindole alkaloids that inhibit the cell cycle from Myxomycetes Arcyria ferruginea and Tubifera casparyi” (Bioorg Med Chem Lett, 2003)

How the values were obtained:
HeLa [1] = test: Compound was tested at concentration of 28 nM for HeLa cell cycle inhibition; arrest of G1 phase; type: functional, cell-based; settings: Homo sapiens
HeLa [2] = test: Compound was tested at concentration of 280 nM for HeLa cell cycle inhibition; arrest of G2/M phase; type: functional, cell-based; settings: Homo sapiens

## O=C1NC(=O)c2c1c1c3ccc(O)cc3[nH]c1c1[nH]c3cc(O)ccc3c21
HeLa [1]
  Concentration: 10 ng/mL
HeLa [2]
  Concentration: 100 ng/mL
